Reference: article PMC7966987, “Insights into the catalytic properties of the mitochondrial rhomboid protease PARL” (The Journal of Biological Chemistry, 2021)
Where “and” joins values, the source holds several entries; their conditions need not be identical. Equal values may be shown once. Entries after “also recorded” stand apart in the source; their conditions may differ.

Key:
Assay type in all cases: biochemical
human PARLΔ77 = assay: IQ-peptide substrate cleavage kinetics, PARLΔ77 in proteoliposomes; conditions: for fold change Km/kcat, PARLΔ77/PARLΔ55 / fold change kcat, PARLΔ77/PARLΔ55: PARL in PLs; for turnover / proteolysis with PARLΔ77 compared with PARLΔ55: in PL
Source text: (§1) To assess the activity of recombinant PARL toward known substrates in a lipid bilayer, full-length and β-truncated PARL were reconstituted in proteoliposomes (PLs) using Escherichia coli lipids that closely resemble the composition of the IMM ([31]). We determined that the EDANS/Dabcyl - FRET tags prevented incorporation of the substrates into PL; however, the substrate could still be cleaved since the active site is proposed to be near the lipid/water interface ([40], [41]) analogous to bacterial rhomboid proteases (Fig. 1). To calculate the specific activity of the protease, we quantified the fraction of PARL in the PLs with an outward facing active site using a membrane […] activity-based TAMRA-labeled fluorophosphonate probe ([42]). […] These values were used to calculate specific activity of the PARL protease. Next, we compared cleavage of three IQ-peptide substrates by reconstituted full-length mature PARLΔ55 and the β-truncated form, PARLΔ77 (Fig. 3, Tables S5 and S6).
(§2) Assays with FRET-PINK1^70–134 were conducted as previously described ([26]). For EDANS/Dabcyl 10-mer IQ peptides (PINK1, PGAM5, Smac/Diablo), lyophilized peptides were initially dissolved in DMSO to obtain a stock solution. The IQ peptide substrates in a concentration range of 0.1–70 μM were incubated with activity assay buffer (50 mM Tris-HCl pH 7.0, 150 mM NaCl, 10% glycerol, 0.1% DDM) in a 384-well black-bottomed plate at 37 °C for 30 min in a multiwell plate reader (SynergyMx, BioTek). For all concentrations of IQ peptide, the DMSO was kept constant at 5%. Following preincubation, PARL was added to a final concentration of 0.8 μM to initiate the cleavage reaction. Fluorescence readings were taken every 3 min over a 3 h time course at ƛex = 336 nm and ƛem = 490 nm. The initial velocity was determined from the fluorescence readings over the time course. For each substrate concentration, a no-enzyme control was subtracted to eliminate background fluorescence changes not related to substrate cleavage. Relative fluorescence units were converted to concentration (μM) by determining the maximum change in fluorescence observed for each substrate concentration when fully digested. GraphPad Prism software was used for Michaelis–Menten analysis of kinetic curves. All kinetic data were obtained using at least three biological replicates (different enzyme preparations) with technical duplicates for each experiment. For kinetic measurements in detergent with all three substrates, the activity assays were repeated at least five times. In addition, after each protease purification, the quality control of purified PARL was controlled by measuring its enzymatic activity. Minimum of three experimental replicates with two technical replicates were used for data analysis.
(§3) E. coli polar lipids (Avanti), 400 μg in chloroform, were dried under nitrogen stream in a glass tube to yield a thin film of lipid. The tube was incubated overnight in a desiccator to completely remove all traces of solvent. In total, 50 μl of water and DDM detergent was added to the lipid film for resuspension at room temperature for 10 min, followed by the addition of purified PARL (400 μg) in 50 mM Tris-HCl, pH 8.0, 150 mM NaCl, 20% glycerol, 0.1% DDM, to yield the final weight ratio of 1 PARL:1 lipid:2 detergent. The detergent was slowly removed by the addition of SM2 Biobeads (Bio-Rad) while stirring on ice for 6 h to allow for the generation of proteoliposomes (PL); the process was controlled by the regimen of Biobead addition. To purify the PL, 50%:20% sucrose density gradient ultracentrifugation was used. A TAMRA probe (ThermoFisher) was used to determine the orientation of reconstituted PARL, which specifically and covalently labels serine residues of an enzymatically active serine protease. In total, 2 μM of TAMRA probe was added to PL samples and incubated for 1 h, allowing the TAMRA probe to label only the outward-facing accessible active sites. […]

PARLΔ77 [1] = target: T1, PARLΔ77 (Homo sapiens, UniProt Q9H300); assay: as above; conditions: for ranking of substrate cleavage: in proteoliposomes, by kcat, KM or kcat/KM
T1 construct: GFP-hexahistidine (behind a TEV cleavage site) (C, cleaved yes); made in house; host or cells: Pichia pastoris
T1 sequence (Q9H300 78-379): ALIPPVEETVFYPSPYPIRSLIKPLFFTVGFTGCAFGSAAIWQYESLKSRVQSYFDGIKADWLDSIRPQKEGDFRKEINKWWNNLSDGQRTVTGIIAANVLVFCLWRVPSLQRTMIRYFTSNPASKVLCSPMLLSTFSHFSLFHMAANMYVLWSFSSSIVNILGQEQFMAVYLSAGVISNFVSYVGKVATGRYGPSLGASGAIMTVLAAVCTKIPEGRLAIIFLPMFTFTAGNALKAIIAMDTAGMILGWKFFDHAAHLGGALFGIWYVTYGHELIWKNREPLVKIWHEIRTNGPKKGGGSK
Source text: as §1, §2, §3

PARLΔ77 [2] = target: T1, PARLΔ77; assay: IQ-peptide substrate cleavage kinetics, PARLΔ77 in POPE/POPC proteoliposomes lacking CL; conditions: pH 7.0, 37 °C, mean ± SEM, n=3
Source text: To examine if CL influences PARL activity in a membrane environment, we prepared PL samples containing β-truncated PARL and conducted detailed kinetic analysis with the three IQ-peptide substrates (Fig. 3B). Two independent PL samples were generated: the first consisted only of POPC and POPE, while the second also contained CL. […] When CL was omitted from the PL, we observed two to tenfold slower turnover rates of cleavage for IQ-peptide substrates by β-truncated PARL (Fig. 3B and Table S7).
as §2
as §3, with “sites. The same amount of PL, but with 1% DDM added to dissolve lipid vesicles incubated with 2 μM of TAMRA probe at the same conditions, was used as a benchmark for 100% accessible protein amount. The reaction was quenched with addition of SDS-containing sample buffer and the protein samples were visualized with SDS-PAGE followed by fluorescent gel scanning. The bands were quantified by densitometry analysis.” for “sites.”

Row | Substance | fold change Km/kcat, PARLΔ77/PARLΔ55 (human PARLΔ77) [fold] | fold change kcat, PARLΔ77/PARLΔ55 (human PARLΔ77) [fold] | ranking of substrate cleavage (PARLΔ77 [1]) | Km (PARLΔ77 [2]) [µM] | kcat (turnover rate) (PARLΔ77 [2]) [s⁻¹] | kcat/KM (catalytic efficiency) (PARLΔ77 [2]) [M⁻¹ s⁻¹] | turnover / proteolysis with PARLΔ77 compared with PARLΔ55 (human PARLΔ77; listed as IQ-Smac/Diablo) | turnover / proteolysis with PARLΔ77 compared with PARLΔ55 (human PARLΔ77; listed as Smac/Diablo) | turnover rate (PARLΔ77 [1]; PARLΔ77 in proteoliposomes)
1 | (DABCYL)-AVFLSAVAVG-Glu(EDANS) [IQ-PGAM5^20–29, internally quenched DABCYL/EDANS peptide substrate based on PGAM5 PARL cleavage site] | 7 | 4 | the preferred substrate with the lowest KM and the highest catalytic efficiency; also recorded: cleaved with the highest efficiency | 8 ± 3 | 0.0025 ± 0.00056 | 278 ± 83 |  |  | 
2 | (DABCYL)-AVFLAFGLGL-Glu(EDANS) [IQ-PINK1^99–108, internally quenched DABCYL/EDANS peptide substrate based on PINK1 PARL cleavage site] | 5 | 3 |  | 14 ± 5 | 0.0019 ± 0.00028 | 140 ± 56 |  |  | 
3 | (DABCYL)-GVT LCAVPIA-Glu(EDANS) [IQ-Smac/Diablo^51–60, internally quenched DABCYL/EDANS peptide substrate based on Smac/Diablo PARL cleavage site] | 2 | 10 | the fastest | 3.8 ± 1 | 0.00133 ± 8.3e-05 | 333 ± 83 | increase in proteolysis | significantly enhanced | 1.0 ± 0.1 min⁻¹ and 1 min⁻¹
